Laboratory results as given in patent US10308959B2, “Methods, systems, and compositions relating to MiRNA-146a” (Henry Ford Health System, priority 2013, dated 2019).

Test system: diabetic mice (db/db mice)
Assay: Diabetic peripheral neuropathy in type II diabetic mice (db/db)
Format: in vivo, mouse
Excerpt: DRG neurons play an important role in sensory conduction. Diabetic peripheral neuropathy is characterized by the loss and/or degeneration of neurons and the slowing of nerve conduction velocities. Using a mouse model of type II diabetes which develops severe peripheral neuropathy, we measured miR-146a expression in DRG neurons. […] FIG. 5H is quantitative data of caspase 3 positive cells. FIGS. 5I and J are neurological function measured by motor nerve conduction velocity (MCV, FIG. 5I) and sensory nerve conduction velocity (“SCV”, FIG. 5J). Red, blue, and black lines represent non-diabetic mice, diabetic mice treated with saline, and diabetic mice treated with sildenafil, respectively. *P<0.01 versus the nondiabetic group. #P<0.05 versus the diabetic group treated with saline. n=10/group. […] Elevation of miR-146a in DRG neurons by sildenafil rescued diabetes-induced DRG neuron death and improved neurological outcomes (FIG. 5).

[1] = diabetic mice treated with sildenafil

SMILES: CCCc1nn(C)c2c(=O)[nH]c(-c3cc(S(=O)(=O)N4CCN(C)CC4)ccc3OCC)nc12 [sildenafil]
- diabetes-induced DRG neuron death (caspase 3 positive cells) [1]: rescued
- miR-146a in DRG neurons [1]: Elevation
- neurological outcomes (MCV, SCV) (diabetic mice treated with sildenafil vs saline): improved
